Data on seven molecules can be found in US8372991B2, “Trisubstituted thiophenes that modulate intracellular calcium” (Calcimedica, Inc., priority 2008, dated 2013).

The test system of experiment [1] is Jurkat cells. As to conditions: Jurkat cells and colon cancer cells; cited from earlier work.
Experiment [2] has as its system RBL-2H3 cells. Put plainly: Fluorescence-based assay of store-operated calcium entry in RBL-2H3 cells. It counts as cell-based. As to conditions: Rattus norvegicus, thapsigargin, 50% inhibition of Upslope. The protocol:
B. Fluorescence-Based Assay of Store-Operated Calcium Entry in RBL-2H3 Cells.
RBL-2H3 cells were obtained from ATCC and maintained in complete medium with 10% FBS at 37° C./6% CO2.
The day prior to performing the assay, RBL-2H3 cells are plated in 50 μL of complete medium in a 384 well plate. Cells are grown at 37° C./6% CO2 overnight and grow to 50-60% confluence by the next day. On the assay day, 1.5 μM Fluo-4-AM dye (Invitrogen) in complete medium is added and incubated for 1 hour at RT. Cells are washed twice in Ca^2+-free HBSS buffer and 35 μL Ca^2+-free HBSS buffer is added to each well. 10 μL of a test compound prepared in a Ca^2+-free HBSS solution at 4.5× of the desired concentration is added to a well and incubated for 5 minutes at RT. 10 μL of thapsigargin prepared in a Ca^2+-free HBSS solution at 5.5× of the desired concentration (5.5 uM) is added to each well and incubated for an additional 25 minutes. The initial baseline fluorescence signal is measured with a FLIPR^384 (Molecular Devices) plate reader. 5 μL of 12× calcium in HBSS (12 mM) is added and changes in cellular fluorescence are measured with the FLIPR^384 plate reader. In each well, the change in the fluorescent signal as a function of time due to calcium entry into the cell is determined by calculating the difference between the fluorescent signal measured 7 seconds after calcium addition and the initial baseline fluorescence signal at time zero (t=0). This parameter is designated Upslope. The IC50 value is calculated as the concentration at which 50% of the Upslope is inhibited.

Experiment [3] can be described thus: Fluorescence-based assay of store-operated calcium entry in Orai1/STIM1 stable cells (Table A JR251). It counts as cell-based. As to conditions: Homo sapiens, 50% inhibition of Peak-Basal fluorescence signal. The procedure:
A. Fluorescence-Based Assay of Store-Operated Calcium Entry in Orai1/STIM1 Stable Cells.
Cells stably expressing recombinant human STIM1 and Orai1 were generated by transfecting a human Orai1 expression plasmid (pcDNA3.1-Orai1-cmyc) into HEK-293 cells stably overexpressing human STIM1 (Roos et al. 2005 JCB 169(3): 435-445). Colonies of cells stably expressing both STIM1 and Orai1 proteins were selected and then subcloned by limiting dilution. Cells were cultured at 37° C./6% CO2 in complete medium with 10% FBS and appropriate selection markers.
The day prior to performing the assay Orai1/STIM1 stable cells were plated in 50 μL of complete medium at 90-95% confluence in a 384 well plate. Cells were grown at 37° C./6% CO2 overnight. On the day of the assay, 1.5 μM fluo-4-AM (Invitrogen) in complete medium was added to the cells, which were then incubated for 1 hour at RT. Cells were washed once in Ca^2+-free HBSS (Hank's buffered saline solution) and 35 μl of Ca^2+-free HBSS was added to each well. Test compounds were added to wells in a 10 μL Ca^2+-free HBSS solution, prepared at 4.5× the desired final concentration, and incubated for 30 minutes at RT. The initial baseline fluorescence signal was then measured with a FLIPR^384 (Molecular Devices) plate reader. Calcium entry was initiated by adding 5 μl of 10× CaCl2 (10 mM) in HBSS, and changes in cellular fluorescence were measured with the FLIPR^384 plate reader. In each well, the magnitude of the fluorescence signal as a result of calcium entry into the cell was determined by calculating the difference between the peak fluorescence signal measured after calcium addition and the initial baseline fluorescence signal (designated Peak-Basal). IC50 values were typically calculated as the concentration that inhibited 50% of the Peak-Basal signal (Table A).

Experiment [4] addresses STIM1 and Orai1 in human embryonic kidney 293 cells (HEK293 cells) (Homo sapiens, UniProt Q96D31). To be noted: HEK293 co-expressing STIM1 and Orai1; cited from earlier work.

STIM1 and Orai1 in human embryonic kidney 293 cells (HEK293 cells), sequence (Q96D31 whole entry): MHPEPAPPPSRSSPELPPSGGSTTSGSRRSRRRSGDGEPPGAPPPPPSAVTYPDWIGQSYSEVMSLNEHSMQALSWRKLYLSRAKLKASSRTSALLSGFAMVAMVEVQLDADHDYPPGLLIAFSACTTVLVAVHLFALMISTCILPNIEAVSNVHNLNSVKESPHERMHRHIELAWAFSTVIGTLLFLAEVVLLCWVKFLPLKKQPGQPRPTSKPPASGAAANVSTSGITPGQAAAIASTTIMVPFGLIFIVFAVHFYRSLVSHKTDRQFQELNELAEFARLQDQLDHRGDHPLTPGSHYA

With `Cc1nnsc1C(=O)Nc1ccc(-n2nc(C(F)(F)F)cc2C(F)(F)F)cc1` [BTP-2], in experiment [1], the “inhibition of SOCE” value is reported as “inhibits” and the inhibition of proliferation result is “inhibits”. Regarding `O=C(Nc1scc(-c2ccc3scnc3c2)c1C(=O)O)c1cc2ccccc2o1` [J], the IC50 in experiment [2] and in experiment [3] was no more than 0.5 µM throughout. As to `Cc1ccc(-c2csc(NC(=O)c3cc4ccccc4o3)c2C(=O)O)c2ccccc12` [K], the IC50 in experiment [2] is 1 to 10 µM; in experiment [3], no more than 0.5 µM.

In the case of `O=C(CCc1cccc(F)c1)Nc1scc(-c2ccc(Cl)nc2)c1C(=O)O` [G], the 50% inhibitory concentration (IC50) in experiment [3] lay within 1 to 10 µM. As for `NCCOB(c1ccccc1)c1ccccc1` [2-aminoethoxydiphenylborate], the “block of store-dependent Ca2+ entry” value in experiment [4] was “completely blocked”. On to `O=C(Nc1scc(-c2cnc(C(F)(F)F)nc2)c1C(=O)O)c1cc2ccccc2o1` [F], for which the IC50 in experiment [2] and in experiment [3] was no more than 0.5 µM in each case. As to `Cc1ccc(-c2csc(NC(=O)c3cc4ccccc4o3)c2C(=O)O)c2cccnc12` [L], the IC50 in experiment [2] and in experiment [3] was no more than 0.5 µM each time.

In general, IC50 refers to the point on the concentration scale where inhibition reaches its midpoint.
